According to US20250059172A1, “INDAZOLE COMPOUND AND PHARMACEUTICAL” (NIPPON SHINYAKU CO., LTD., priority 2021, published 2025):
pIC50: −log10 of the molar value. Structures can show the parent of a compound that is named as a salt.

Tests used:
[1] = target: human mPGES-1 (Homo sapiens (Human), UniProt O14684); experiment: mPGES-1 inhibitory activity test; format: biochemical; conditions: for inhibition at 0.01 µM: 10 nM test compound; for inhibition at 0.1 µM: 100 nM test compound; for IC50: microsomes of CHO-K1 cells expressing human mPGES-1, PGH2 1 μM, PGE2 by HTRF, read-out: mPGES-1 inhibition (IC50 nM)
Procedure: mPGES-1 microsomal specimens were prepared by transiently transfecting CHO-K1 cells (DS Pharma Biomedical Co. Ltd) with a plasmid encoding human mPGES-1 cDNA using FuGENE 6 Transfection Reagent (Promega). The prepared mPGES-1 microsome specimens were diluted in potassium phosphate buffer of pH 7.4 comprising 2.5 mM reduced glutathione (Sigma-Aldrich), DMSO solution of a test compound or DMSO was added to a final concentration of 1% of DMSO, and then incubated at 4° C. for 20 minutes. The enzymatic reaction was then initiated by adding a solution of PGH2 (Cayman chemical) substrate of a final concentration 1 μM and incubated at 4° C. for 60 seconds. The reaction was terminated by adding a solution of ferric chloride (STREM CHEMICALS) and citric acid (Wako Pure Chemical Industries) salt to a final concentration of 5 mg/mL and 250 mM, respectively. The formed PGE2 was quantified using the HTRF kit (Cisbio International). Solutions without the test compound were used as positive controls, and solutions without the test compound and microsomal specimens were used as negative controls. 100% activity was defined as production of PGE2 in the positive control minus that in the negative control. The percentage inhibition of production of PGE2 at final concentrations of 10 nM and 100 nM of the test compound was then calculated, or IC50 values were determined using standard methods.

[2] = test system: human A549 cells; experiment: Inhibition test of PGE2 production using human A549 cells; format: cell-based; conditions: IL-1β stimulated A549 cells, 24 h, PGE2 by HTRF, read-out: A549 cell inhibition of PGE2 production IC50
Procedure: 100 μL of RPMI medium (Sigma) comprising 10% FBS and human A549 cells was seeded in a 96-well plate to […] cells per well, and incubated overnight. The medium was then removed and washed with phosphate-buffered saline, and added to a DMSO solution of the test compound or RPMI medium comprising 3% FBS with DMSO to a final concentration of 0.1% DMSO. After incubation for 60 minutes, IL-1P (5 ng/well, BioLegend) was added to the solution. After incubation at 37° C. for 24 h, PGE2 in the medium was quantified using the HTRF kit (Cisbio International) and PGF2a was also quantified using the EIA kit (Cayman chemical). Solutions without the test compound were used as positive controls, and solutions without the test compound and IL-1β were used as negative controls. 100% activity was defined as production of PGE2 and PGF2a in the positive control minus those in the negative control. IC50 values were then determined using standard methods.

Sequence of human mPGES-1 (O14684 whole entry): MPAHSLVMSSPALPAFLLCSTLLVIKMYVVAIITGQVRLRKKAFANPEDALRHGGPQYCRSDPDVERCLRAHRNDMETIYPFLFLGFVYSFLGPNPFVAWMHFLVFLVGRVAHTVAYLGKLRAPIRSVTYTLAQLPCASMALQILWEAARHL

Structure (SMILES) | inhibition at 0.01 µM [1] | inhibition at 0.1 µM [1] | pIC50 [2] | IC50 [1]
Cc1ccc(-n2ncc3c(NC(=O)c4cc(CNC(=O)C5(O)CC5)ccc4Cl)cccc32)cc1C(F)(F)F [Example 257, 2-Chloro-5-({[(1-hydroxycyclopropyl)carbonyl]amino}methyl)-N-{1-[4-methyl-3-(trifluoromethyl)phenyl]-1H-indazol-4-yl}benzamide] | 94% | 96% | 8.37 | 
O=C(Cc1ccccc1)NCc1ccc(Cl)c(C(=O)Nc2cccc3c2cnn3-c2ccc(C(F)(F)F)cc2)c1 [Example 44, 2-Chloro-5-{[(phenylacetyl)amino]methyl}-N-{1-[4-(trifluoromethyl)phenyl]-1H-indazol-4-yl}benzamide] |  |  | 6.82 | 7.2 nM
O=C(Nc1cccc2c1cnn2-c1ccc(C(F)(F)F)cc1)c1cc(CNC(=O)C2CCCC2)ccc1Cl [Example 30, 2-Chloro-5-{[(cyclopentylcarbonyl)amino]methyl}-N-{1-[4-(trifluoromethyl)phenyl]-1H-indazol-4-yl}benzamide] |  |  | 8.59 | 5.5 nM
Cc1ccc(-n2ncc3c(NC(=O)c4cc(CNC(=O)C(C)(C)C)ccc4C(F)(F)F)cccc32)cc1Cl [Example 200, N-[1-(3-chloro-4-methylphenyl)-1H-indazol-4-yl]-5-{[(2,2-dimethylpropanoyl)amino]methyl}-2-(trifluoromethyl)benzamide] | 69% | 103% | 9.05 | 
Cc1ccc(-n2ncc3c(NC(=O)c4cc(CNC(=O)C5(C(F)(F)F)CC5)ccc4Cl)cccc32)cc1C(F)(F)F [Example 256, 2-Chloro-N-{1-[4-methyl-3-(trifluoromethyl)phenyl]-1H-indazol-4-yl}-5-[({[1-(trifluoromethyl)cyclopropyl]carbonyl}amino)methyl]benzamide] | 88% | 98% | 9.52 | 
O=C(Nc1cccc2c1cnn2-c1ccc(C(F)(F)F)cc1)c1cc(CNC(=O)C2(C(F)(F)F)CC2)ccc1Cl [Example 26, 2-Chloro-5-[({[1-(trifluoromethyl)cyclopropyl]carbonyl}amino)methyl]-N-{1-[4-(trifluoromethyl)phenyl]-1H-indazol-4-yl}benzamide] |  |  | 8.64 | 1.6 nM
O=C(Nc1cccc2c1cnn2-c1ccc(C(F)(F)F)cc1)c1cc(CNC(=O)C2CCOC2)ccc1Cl (stereo not drawn) [Example 34, N-[4-chloro-3-({1-[4-(trifluoromethyl)phenyl]-1H-indazol-4-yl}carbamoyl)benzyl]-tetrahydrofuran-3-carboxamide] |  |  | 7.68 | 31 nM
Cc1ccc(-n2ncc3c(NC(=O)c4cc(CNC(=O)CC(C)(C)C)ccc4Cl)cccc32)cc1C(F)(F)F [Example 254, 2-Chloro-5-{[(3,3-dimethylbutanoyl)amino]methyl}-N-{1-[4-methyl-3-(trifluoromethyl)phenyl]-1H-indazol-4-yl}benzamide] | 100% | 99% | 9.15 | 
O=C(Nc1cccc2c1cnn2-c1ccc(C(F)(F)F)cc1)c1cc(CNC(=O)C23CC4CC(CC(C4)C2)C3)ccc1Cl [Example 32, N-[4-chloro-3-({1-[4-(trifluoromethyl)phenyl]-1H-indazol-4-yl}carbamoyl)benzyl]tricyclo[3.3.1.1^3,]decane-1-carboxamide] |  |  | 7.92 | 23 nM
O=C(Nc1cccc2c1cnn2-c1ccc(C(F)(F)F)cc1)c1cc(CNC(=O)C2CCCO2)ccc1Cl (stereo not drawn) [Example 33, N-[4-chloro-3-({1-[4-(trifluoromethyl)phenyl]-1H-indazol-4-yl}carbamoyl)benzyl]-tetrahydrofuran-2-carboxamide] |  |  | 7.38 | 18 nM
COCC(=O)NCc1ccc(Cl)c(C(=O)Nc2cccc3c2cnn3C)c1 [Example 207, 2-Chloro-5-{[(methoxyacetyl)amino]methyl}-N-(1-methyl-1H-indazol-4-yl)benzamide] | 59% |  | 6.52 | 
CC(C)(C)C(=O)NCc1ccc(Cl)c(C(=O)Nc2cccc3c2cnn3CCN2CCOCC2)c1 [Example 107, 2-Chloro-5-{[(2,2-dimethylpropanoyl)amino]methyl}-N-{1-[2-(morpholin-4-yl)ethyl]-1H-indazol-4-yl}benzamide hydrochloride] |  |  | 6.40 | 10 nM
COCCC(=O)NCc1ccc(Cl)c(C(=O)Nc2cccc3c2cnn3-c2ccc(C(F)(F)F)cc2)c1 [Example 47, 2-Chloro-5-{[(3-methoxypropanoyl)amino]methyl}-N-{1-[4-(trifluoromethyl)phenyl]-1H-indazol-4-yl}benzamide] |  |  | 8.07 | 8 nM
CC(C)(C)C(=O)NCc1ccc(Cl)c(C(=O)Nc2cccc3c2cnn3-c2ccc(C(F)(F)F)nc2)c1 [Example 77, 2-Chloro-5-{[(2,2-dimethylpropanoyl)amino]methyl}-N-{1-[6-(trifluoromethyl)pyridin-3-yl]-1H-indazol-4-yl}benzamide] |  |  | 9.00 | 1.1 nM
O=C(Nc1cccc2c1cnn2-c1ccccn1)c1cc(CNC(=O)C2CC2)ccc1Cl [Example 8, 2-Chloro-5-{[(cyclopropylcarbonyl)amino]methyl}-N-[1-(pyridin-2-yl)-1H-indazol-4-yl]benzamide] |  |  | 7.95 | 3.9 nM

Other lines, results leading:

inhibition at 0.01 µM [1] | inhibition at 0.1 µM [1] | pIC50 [2] | IC50 [1] | Structure (SMILES)
80% | 96% | 8.07 |  | COc1cc(-n2ncc3c(NC(=O)c4cc(CNS(=O)(=O)C5CC5)ccc4Cl)cccc32)ccn1 [Example 165, 2-Chloro-5-{[(cyclopropylsulfonyl)amino]methyl}-N-[1-(2-methoxypyridin-4-yl)-1H-indazol-4-yl]benzamide]
92% |  | 8.20 |  | CC(C)(C)CC(=O)NCc1ccc(Cl)c(C(=O)Nc2cccc3c2cnn3-c2ccc(Cl)cc2)c1 [Example 145, 2-Chloro-N-[1-(4-chlorophenyl)-1H-indazol-4-yl]-5-([(3,3-dimethylbutanoyl)amino]methyl)benzamide]
57% | 85% | 7.36 |  | Cn1ncc2c(NC(=O)c3cc(CNC(=O)C4CCCC4)ccc3Cl)cccc21 [Example 204, 2-Chloro-5-{[(cyclopentylcarbonyl)amino]methyl}-N-(1-methyl-1H-indazol-4-yl)benzamide]
 |  | 8.54 | 3.5 nM | COc1cncc(-n2ncc3c(NC(=O)c4cc(CNC(=O)C(C)(C)C)ccc4Cl)cccc32)c1 [Example 61, 2-Chloro-5-{[(2,2-dimethylpropanoyl)amino]methyl}-N-[1-(5-methoxypyridin-3-yl)-1H-indazol-4-yl]benzamide hydrochloride]
 |  | 8.40 | 3.3 nM | COc1ccc(-n2ncc3c(NC(=O)c4cc(CNC(=O)C(C)(C)C)ccc4Cl)cccc32)cc1 [Example 48, 2-Chloro-5-{[(2,2-dimethylpropanoyl)amino]methyl}-N-[1-(4-methoxyphenyl)-1H-indazol-4-yl]benzamide]
 |  | 7.09 | 99.9 nM | CC(C)(C)C(=O)NCc1ccc(Cl)c(C(=O)Nc2cccc3c2cnn3C2CCOCC2)c1 [Example 104, 2-Chloro-5-{[(2,2-dimethylpropanoyl)amino]methyl}-N-[1-(tetrahydro-2H-pyran-4-yl)-1H-indazol-4-yl]benzamide]
 |  | 8.01 | 6.3 nM | O=C(Nc1cccc2c1cnn2-c1cccc(C(F)(F)F)c1)c1c(F)ccc(CNC(=O)C2CC2)c1F [Example 16, 3-{[(Cyclopropylcarbonyl)amino]methyl}-2,6-difluoro-N-{1-[3-(trifluoromethyl)phenyl]-1H-indazol-4-yl}benzamide]
 |  | 7.95 | 1.3 nM | CC(C)(C)C(=O)NCc1ccc(Cl)c(C(=O)Nc2cccc3c2cnn3CC2CCCCO2)c1 (stereo not drawn) [Example 105, 2-Chloro-5-{[(2,2-dimethylpropanoyl)amino]methyl}-N-[1-(tetrahydro-2H-pyran-2-ylmethyl)-1H-indazol-4-yl]benzamide]
 |  | 8.55 | < 1 nM | CC(C)(C)CC(=O)NCc1ccc(Cl)c(C(=O)Nc2cccc3c2cnn3-c2ccc(C(F)(F)F)cc2)c1 [Example 20, 2-Chloro-5-{[(3,3-dimethylbutanoyl)amino]methyl}-N-{1-[4-(trifluoromethyl)phenyl]-1H-indazol-4-yl}benzamide]
